Test results: paper PMC12633397 (bioRxiv, 2025)

Molecular target: T1, esVHPO (Enhygromyxa salina, UniProt A0A0C2CTX7)
T1 sequence (A0A0C2CTX7 1-528): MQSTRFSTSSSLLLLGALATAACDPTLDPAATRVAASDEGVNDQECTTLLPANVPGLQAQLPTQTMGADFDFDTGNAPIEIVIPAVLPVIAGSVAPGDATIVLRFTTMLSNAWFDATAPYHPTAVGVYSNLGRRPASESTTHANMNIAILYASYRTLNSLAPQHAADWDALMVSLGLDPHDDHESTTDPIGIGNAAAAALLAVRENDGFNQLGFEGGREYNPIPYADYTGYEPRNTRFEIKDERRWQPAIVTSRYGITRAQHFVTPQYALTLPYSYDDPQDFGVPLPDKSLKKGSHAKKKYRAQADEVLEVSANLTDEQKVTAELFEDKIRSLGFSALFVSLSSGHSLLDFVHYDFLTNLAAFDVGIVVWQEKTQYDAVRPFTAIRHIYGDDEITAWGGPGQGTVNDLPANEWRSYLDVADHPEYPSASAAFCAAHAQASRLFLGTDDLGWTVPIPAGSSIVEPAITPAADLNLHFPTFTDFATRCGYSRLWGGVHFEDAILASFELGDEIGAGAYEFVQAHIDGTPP
Assay: UPLC-MS of Br-MHQ formation, steady-state kinetics
Type: biochemical
Conditions: 1 mM H2O2, 20 mM KBr, 100 μM Na3VO4, 20 mM HEPES-KOH, 10% glycerol, 28 °C; Hill fit, positive cooperativity; labelled compound (deuterated)

**Q.** How did the K0.5 turn out when Cc1cc(=O)c2ccccc2[nH]1 [C3-deuterated MHQ] was run?
**A.** The steady state kinetics for C3-Deuterated-MHQ (D-MHQ) was performed precisely as for undeuterated MHQ
